We go through nine compounds from ChEMBL document CHEMBL5143544, “Chemoenzymatic synthesis, computational investigation, and antitumor activity of monocyclic lankacidin derivatives” (Bioorg Med Chem, 2022).

One experiment has as its system MCF7. Description: cells. The conditions noted are these: Homo sapiens, MCF7, 72 h.
The next experiment concerns A549. Nature of the experiment: Cytotoxicity against human A549 cells assessed as reduction in cell viability after 72 hrs by MTT assay. The experiment is classed as functional, cell-based. Particulars: A549, 72 h.
The subject of the next experiment is HeLa. Description: Cytotoxicity against human HeLa cells assessed as reduction in cell viability after 72 hrs by MTT assay. The experiment is classed as functional, cell-based.
A further experiment relates to Micrococcus luteus. Description: Antimicrobial activity against Micrococcus lutes assessed as reduction in microbial growth incubated for 24 hrs by agar dilution method. It is filed as functional.

Description for MCF7: Cytotoxicity against human MCF7 cells assessed as reduction in cell viability after 72 hrs by MTT assay

Regarding `CC(=O)O[C@H]1C(=O)[C@@]2(C)[C@H]([C@H](OC(=O)c3ccccc3)[C@]3(O)C[C@H](OC(=O)[C@H](O)[C@@H](NC(=O)c4ccccc4)c4ccccc4)C(C)=C1C3(C)C)[C@]1(OC(C)=O)CO[C@@H]1C[C@@H]2O` [PACLITAXEL], the IC50 with MCF7 is over 0.0811 µM; in the experiment with A549, 0.0295 µM; with HeLa, under 0.00625 µM.

As to `CC(=O)C(=O)N[C@@H]1/C=C(C)/C=C\[C@@H](O)C/C=C(C)/C=C/[C@@H](O)C[C@H]2OC(=O)[C@]1(C)C(=O)[C@@H]2C`, the values for the IC50 with MCF7, with A549 and in the experiment with HeLa were over 100 µM, over 100 µM and 23.3 µM, respectively. In addition, the MIC in the experiment with Micrococcus luteus is 6.2 µM.

`CC(=O)C(=O)N[C@@H]1/C=C(C)/C=C/[C@@H](O)C/C=C(C)/C=C/[C@@H](O)C/C=C(\C)C(=O)[C@H]1C`: the IC50 in the experiment with MCF7 is over 100 µM; in the experiment with A549 it was over 100 µM; in the experiment on HeLa it was 72.9 µM.

Turning to `CC(=O)O[C@@H]1/C=C/C(C)=C/C[C@H](O)/C=C/C(C)=C/[C@@H](NC(=O)[C@H](C)O)[C@]2(C)C(=O)O[C@H](C1)[C@@H](C)C2=O`, the results for the IC50 in the experiment with MCF7, in the experiment on A549 and with HeLa were 47.1 µM, over 100 µM and 48.2 µM, respectively.

In the case of `CC1=C\C[C@H](O)/C=C/C(C)=C/[C@@H](NC(=O)[C@H](C)O)[C@H](C)C(=O)/C(C)=C/C[C@H](O)\C=C\1`, the IC50 was over 100 µM with MCF7, over 100 µM in the experiment with A549 and 13.3 µM with HeLa.

Regarding `CC(=O)C(=O)N[C@@H]1/C=C(C)/C=C/[C@@H](O)C/C=C(C)/C=C/[C@@H](O)C/C=C(\C)C(=O)[C@@H]1C`, the IC50 with MCF7, with A549 and in the experiment with HeLa was over 100 µM each time.

As to `O=c1[nH]cc(F)c(=O)[nH]1` [FLUOROURACIL], the IC50 amounted to 22.8 µM in the experiment on MCF7, 6.6 µM with A549 and 32.1 µM in the experiment on HeLa.

As to `CC1=C\C[C@H](O)/C=C/C(C)=C/[C@@H](NC(=O)[C@H](C)O)[C@]2(C)C(=O)O[C@H](C[C@H](O)\C=C\1)[C@@H](C)C2=O`, the IC50 is 75.7 µM with MCF7, over 100 µM in the experiment with A549 and 24.8 µM with HeLa.

On to `CC1=C\C[C@H](O)/C=C/C(C)=C/[C@@H](NC(=O)[C@H](C)O)[C@@H](C)C(=O)/C(C)=C/C[C@H](O)\C=C\1`, for which the half-inhibitory concentration (IC50) in the experiment on MCF7 is 42.8 µM; in the experiment on A549, over 100 µM; in the experiment on HeLa, 45.4 µM.
